Laboratory results: PMC6129194 (Bioorganic & medicinal chemistry, 2018)

Columns and labels:
[1] = cited from earlier work
[2] = cited from earlier work; remark: listed apart in the source
MDCK-mdr1 cells = assay: MDCK-mdr1 monolayer permeability assay; conditions: % transported apical to basal; 10 μM, 1 h, 37 °C, pH 7.4

Row | MDCK-mdr1 A to B (MDCK-mdr1 cells) [%] | SMILES | solubility in acidic media [1] | human liver microsome stability [2]
1 | – | CN1CCN(c2ncnc3c2nc(-c2ccccc2Cl)n3-c2ccc(Cl)cc2)CC1 [compound 5] | good | good
2 | < 1 | CC(C)CS(=O)(=O)N1CCN(c2ncnc3c2nc(-c2ccccc2Cl)n3-c2ccc(Cl)cc2)CC1 [compound 15, 8-(2-Chlorophenyl)-9-(4-chlorophenyl)-6-{4-[(2-methylpropyl)sulfonyl]piperazin-1-yl}-9H-purine] | – | –
3 | < 1 | N=C(Nc1ccc(F)cc1)N1CCN(c2ncnc3c2nc(-c2ccccc2Cl)n3-c2ccc(Cl)cc2)CC1 [compound 28, 4-[8-(2-Chlorophenyl)-9-(4-chlorophenyl)-9H-purin-6-yl]-N-(4-fluorophenyl)piperazine-1-carboximidamide] | – | –

Row | SMILES | MDCK-mdr1 A to B (MDCK-mdr1 cells) [%] | solubility in acidic media [1] | human liver microsome stability [2]
4 | O=C(OCC1CCC1)N1CCN(c2ncnc3c2nc(-c2ccccc2Cl)n3-c2ccc(Cl)cc2)CC1 [compound 26, Cyclobutylmethyl 4-[8-(2-Chlorophenyl)-9-(4-chlorophenyl)-9H-purin-6-yl]piperazine-1-carboxylate] | < 1 | – | –
